Ki data for 13 compounds are collected here from ChEMBL document CHEMBL3739338, “Inhibition of carbonic anhydrase isoforms I, II, IV, VII and XII with carboxylates and sulfonamides incorporating phthalimide/phthalic anhydride scaffolds” (Bioorg Med Chem, 2016).

In one test the target is Carbonic anhydrase 2 (Homo sapiens, UniProt P00918). The experiment in a line: Inhibition of human carbonic anhydrase-2 preincubated for 15 mins by stopped flow CO2 dehydration assay.
In a further test the target is Carbonic anhydrase 1 (Homo sapiens, UniProt P00915). Kind of test: Inhibition of human carbonic anhydrase-1 preincubated for 15 mins by stopped flow CO2 dehydration assay.
Chain of Carbonic anhydrase 1 (P00915 whole entry): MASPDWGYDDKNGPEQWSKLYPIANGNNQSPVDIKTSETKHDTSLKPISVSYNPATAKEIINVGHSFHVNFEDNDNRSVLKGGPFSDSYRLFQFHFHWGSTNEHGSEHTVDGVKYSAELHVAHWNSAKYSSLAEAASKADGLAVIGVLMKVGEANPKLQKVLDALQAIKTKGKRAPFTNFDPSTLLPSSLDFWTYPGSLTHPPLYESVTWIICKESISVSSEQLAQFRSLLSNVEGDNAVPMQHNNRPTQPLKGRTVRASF
Another test concerns the target Carbonic anhydrase 4 (Homo sapiens, UniProt P22748). The experiment in a line: Inhibition of human carbonic anhydrase-4 preincubated for 15 mins by stopped flow CO2 dehydration assay.

The structures appear in SMILES notation. A value given as a limit tells only on which side of the number the result lay.

Chain of Carbonic anhydrase 4 (P22748 whole entry): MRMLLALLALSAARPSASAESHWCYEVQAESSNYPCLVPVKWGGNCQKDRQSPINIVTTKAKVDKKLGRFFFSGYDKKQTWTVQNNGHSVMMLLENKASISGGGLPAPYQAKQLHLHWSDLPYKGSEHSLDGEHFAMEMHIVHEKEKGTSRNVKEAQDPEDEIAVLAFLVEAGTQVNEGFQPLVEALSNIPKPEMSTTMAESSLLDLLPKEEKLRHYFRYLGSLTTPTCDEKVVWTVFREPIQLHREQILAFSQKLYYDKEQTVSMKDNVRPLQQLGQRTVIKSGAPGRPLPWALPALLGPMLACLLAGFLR

Turning to `O=C(Nc1ccccc1C(=O)O)c1ccc2c(c1)C(=O)OC2=O`, the Ki (as a rule, the dissociation constant of the complex between target and ligand, obtained from inhibition or displacement) on Carbonic anhydrase 2 is above 10 µM.

Take `O=C(Nc1ccccc1C(=O)O)c1ccc2c(c1)C(=O)N(c1ccccc1)C2=O`: the Ki on Carbonic anhydrase 2, on Carbonic anhydrase 1 and at Carbonic anhydrase 4 was above 10 µM each time.

Take `O=C(Nc1ccccc1C(=O)O)c1ccc2c(c1)C(=O)N(Cc1ccccc1)C2=O`: the Ki at Carbonic anhydrase 2 is above 10 µM.

Take `O=C(O)c1ccc(N2C(=O)c3ccc(C(=O)Nc4ccccc4C(=O)O)cc3C2=O)cc1`: the Ki on Carbonic anhydrase 2 and on Carbonic anhydrase 1 was above 10 µM throughout.

Regarding `O=C(Nc1ccc(Cl)cc1C(=O)O)c1ccc2c(c1)C(=O)OC2=O`, at Carbonic anhydrase 4, the Ki was above 10 µM.

Take `Cc1ccc(NC(=O)c2ccc3c(c2)C(=O)OC3=O)c(C(=O)O)c1`: the Ki on Carbonic anhydrase 2 was above 10 µM.

On to `O=C(Nc1ccc(I)cc1C(=O)O)c1ccc2c(c1)C(=O)OC2=O`, for which the Ki at Carbonic anhydrase 2, at Carbonic anhydrase 1 and at Carbonic anhydrase 4 was above 10 µM each time.

Take `COc1cc(NC(=O)c2ccc3c(c2)C(=O)OC3=O)c(C(=O)O)cc1OC`: the Ki at Carbonic anhydrase 2 and at Carbonic anhydrase 4 was above 10 µM each time.

In the case of `NS(=O)(=O)c1ccc(N2C(=O)c3ccc(C(=O)Nc4ccccc4C(=O)O)cc3C2=O)cc1`, the affinity on Carbonic anhydrase 2, expressed as Ki, was 0.0089 µM.

For the compound `NS(=O)(=O)c1ccc(CCN2C(=O)c3ccc(C(=O)Nc4ccccc4C(=O)O)cc3C2=O)cc1`, the Ki on Carbonic anhydrase 2 is 0.0138 µM.

Regarding `CCOC(=O)c1ccc(N2C(=O)c3ccc(C(=O)Nc4ccccc4C(=O)O)cc3C2=O)cc1`, the Ki on Carbonic anhydrase 2 and at Carbonic anhydrase 1 was above 10 µM in each case.

Take `O=C(Nc1ccccc1C(=O)O)c1ccc2c(c1)C(=O)N(CCc1ccccc1)C2=O`: the Ki at Carbonic anhydrase 2 is above 10 µM.

At Carbonic anhydrase 2, `NS(=O)(=O)c1ccc(CN2C(=O)c3ccc(C(=O)Nc4ccccc4C(=O)O)cc3C2=O)cc1` registered a Ki of 0.0105 µM.
